In US8486991B2, “Enantiomerically pure phosphoindoles as HIV inhibitors” (Idenix Pharmaceuticals, Inc., priority 2006, dated 2013):
Several values for one entry are separate records, joined by “and”; a condition that tells them apart may be missing. Equal values may be shown once. Read-outs that look alike come from different tables or passages of the source.

Columns and labels:
HIV-1 W.T. (BH10) virus = experiment: microbe, parasite or virus in culture; format: cell-based
From the text: The HIV-1 strains used were BH10, NL4-3 and IIIB: the cell lines were U-937 cells (human monocytes derived from a histiocytic lymphoma); MOLT-4 cells (a human T lymphoblastic leukemia cell line); H-9 cells (human lymphoblastic T cells); and MT-2 and MT-4 human leukemia T cells.

HIV-1 IIIB w.t. virus = experiment: microbe, parasite or virus in culture; format: cell-based; settings: IIIB
Description: (§1) The test articles were next profiled against a panel of HIV-1 IIIB laboratory cultivated mutants as summarized in the text below. Antiviral efficacy was determined via a CPE assay with an MTS read-out for cell viability.

[1] = tested on: HIV-1 IIIB K103R/V179D/P225H triple mutant virus; experiment: microbe, parasite or virus in culture; format: cell-based; settings: for EC50: Human immunodeficiency virus 1, IIIB; for Fold Change, K103R/V179D/P225H: Table 16, IIIB
Description: as §1

[2] = Cellular cytotoxicity, 4 days, MTS, IM9; format: cell-based; settings: human, Table 21, read-out: Average CC50 Values ± Standard Deviation, IM9
Description: (§3) Cell viability was measured by standard MTT or MTS staining.

in vitro = experiment: in vitro
Description: Cell viability was determined via MTT staining.

HIV-1 BH10 W.T. = experiment: Anti-HIV-1 BH10 W.T. activity in presence of HS or AAG; format: cell-based
[3] = Longer term cytotoxicity, 9 days, MTS, HeLa; settings: human
Description: as §3
(§4) Cells were repeatedly treated with a range of drug concentrations (0.005 to 100 μM) for 9 (HeLa) or 12 days (HuH7, HepG2).

HIV-1 BH10 in U937 cells = experiment: Drug susceptibility assay, BH10 in U937 cells; format: cell-based; settings: Human immunodeficiency virus 1, U-937, read-out: Average EC50 Values ± Standard Deviation, host U937, virus BH10
From the text: (§2) The virus and host-cell dependency of Compound I, Compound III and control drugs was further examined in drug susceptibility assays performed across 3 different subtype B wild-type HIV-1 strains and 5 different cell lines.

[4] = tested on: HIV-1 W.T. strains BH10, NL4-3 and IIIB; experiment: Drug susceptibility assays, 3 W.T. strains in 5 human cell lines (ranges); format: cell-based
From the text: as §2

[5] = Cellular cytotoxicity, 4 days, MTS, H9; format: cell-based; settings: human, Table 21, read-out: Average CC50 Values ± Standard Deviation, H9
Description: as §3

[6] = Longer term cytotoxicity, HeLa, HuH7 and HepG2 (ranges); settings: human, CC50 range, HuH7 and HepG2, 9-12 day testing
Description: as §3, §4

HIV-1 W.T. (NL4-3) virus = experiment: PBMC cell assay, W.T. (NL4-3); format: cell-based; settings: Human immunodeficiency virus 1, NL43, PBMC
[7] = tested on: 9 different HIV-1 subtypes (A, B, C, D, F1, G, H, AE, AG), 18 viruses; experiment: PhenoSense testing, HIV-1 subtype panel; format: cell-based; settings: Human immunodeficiency virus 1, read-out: potency range, panel of 9 different HIV-1 subtypes
From the text: The activities of the test and control compounds were next tested against a subtype panel which covers all major HIV-1 subtypes or clades (A, B, C, D, F1, G, H, AE and AG). This panel was part of a 64 virus panel selected from the large library of clinical isolates Monogram BioSciences (formerly ViroLogics). Each of the subtypes in the panel was represented by 2 distinct viruses which share many sequence similarities, but also some key differences and therefore could respond differently to one or more of the drugs included in this study.

[8] = target: human DNA polymerase beta (Homo sapiens, UniProt P06746); experiment: Human cellular DNA polymerase beta assay; format: biochemical; settings: for IC50: DNA Pol Beta
From the text: HIV RT, like other viral polymerase, shares limited structural homology with the cellular DNA polymerases responsible for normal nuclear and mitochondrial DNA synthesis and repair. This raises the formal possibility that inhibitors of HIV RT might inhibit cellular polymerases, resulting in cellular toxicity. In particular, inhibition of polymerase gamma has the potential to result in mitochondrial toxicity. The ability of Compound I and Compound III to inhibit cellular DNA polymerases was assessed using standard in vitro assays (Table 5).

[9] = tested on: HIV-1 BH10 K103N mutant virus; experiment: microbe, parasite or virus in culture; format: cell-based
Description: The activity of the compounds was also assessed with the same virus and cell type using a different assay readout based on cytopathic effect (CPE).
MT-4 cells (Source: NIH Catalog #120) were seeded onto 96-well cell culture plates (1×10^4 cells per well in 50 μL).
The final DMSO concentration in the assay was 0.5% in 120 μL. Cell cultures were then incubated at 37° C./5% CO2 for 4 days. Then, Cell Titer 96 AQueous One Solution Cell Proliferation Assay (Promega) was used to measure cell viability. Briefly, the One Solution Reagent was added directly to culture wells (20 μL/well), incubated for 5 hours, and the absorbance was recorded at 492 nm using the Sunrise Tecan Spectrophotometer.
The EC50 values were determined from the percent inhibition versus concentration data using a sigmoidal non-linear regression analysis based on four parameters with Tecan Magellan software.

[10] = Cellular cytotoxicity, 4 days, MTS, MT-4; settings: human, Average CC50 Values ± Standard Deviation, MT-4, Table 21; 4 days, MTS
Description: Following drug exposure for 4 days, cell viability was measured by MTS staining and CC50 values were determined. Drug concentrations ranged from 0.005 μM to 100 μM.
The preceding data, allows us to calculate selectivity index (SI) values, based on the ratio of CC50 to EC50 in MT-4 cells (the standard assay used in this work).

[11] = Cellular cytotoxicity, 4 days, MTS, MT-2; format: cell-based; settings: human, Table 21, read-out: Average CC50 Values ± Standard Deviation, MT-2
Description: as §3

[12] = Table 20, vs 10% FBS only, listed as Cmpd I

In the case of `CO[P@](=O)(c1cc(C)cc(/C=C/C#N)c1)c1c(C(N)=O)[nH]c2ccc(Cl)c(F)c12` [Compound I, (2-Carbamoyl-5-chloro-4-fluoro-1H-indol-3-yl)-[3-((E)-2-cyano-vinyl)-5-methyl-phenyl]-(R)-phosphinic acid methyl ester], the EC50 (HIV-1 W.T. (BH10) virus; Human immunodeficiency virus 1, MT2, read-out: Average EC50 Values ± Standard Deviation, W.T. (BH10)) is reported as 0.9 ± 0.6 nM, the EC50 (HIV-1 W.T. (BH10) virus; Human immunodeficiency virus 1, MT2, read-out: Average EC50 Values ± Standard Deviation, host MT-2, virus BH10) is reported as 0.9 ± 0.6 nM and the “Fold Change, W.T.” value (HIV-1 W.T. (BH10) virus; Table 13, MT-2) is reported as 1 fold. The EC50 (HIV-1 IIIB w.t. virus; Human immunodeficiency virus 1, MT4, Table 15, CPE, read-out: Average EC50 Values ± Standard Deviation, W.T.) was 1 ± 0.4 nM, the “Fold Change, W.T.” value (HIV-1 IIIB w.t. virus; Table 16) was 1 fold and the EC50 ([1]; MT4, read-out: Average EC50 Values ± Standard Deviation, K103R/V179D/P225H) was 10 ± 1.5 nM. The EC50 ([1]; MT4, read-out: EC50, K103R/V179D/P225H triple mutant virus) was 10 nM, the “Fold Change, K103R/V179D/P225H” value [1] was 11.1±4.1 fold and the “Fold Change, K103R/V179D/P225H” value ([1]; listed as Cmpd. I) was 11.1 ± 4.1 fold. For the same molecule, the CC50 at 4 days [2] was 32900 ± 2600 nM, the CC50 at 3 days (in vitro) was 52600 nM and the EC50 (HIV-1 BH10 W.T.; Human immunodeficiency virus 1, read-out: Average EC50 Values ± Standard Deviation, 10% Fetal Bovine Serum) was 1.1 ± 0.4 nM. For the same molecule, the EC50 (HIV-1 BH10 W.T.; Human immunodeficiency virus 1, read-out: Average EC50 Values ± Standard Deviation, 10% Fetal Bovine Serum + AAG) was 2.9 ± 1.2 nM, the EC50 (HIV-1 BH10 W.T.; Human immunodeficiency virus 1, read-out: Average EC50 Values ± Standard Deviation, 45% Human Serum) was 14.6 ± 6.3 nM and the EC50 (HIV-1 BH10 W.T.; Human immunodeficiency virus 1, read-out: Average EC50 Values ± Standard Deviation, 45% Human Serum + AAG) was 19 ± 1.7 nM. For the same molecule, the EC50 (HIV-1 BH10 W.T.; Human immunodeficiency virus 1, read-out: mean EC50 values, 45% HS+AAG) was 19 nM, the “Fold Change, 10% Fetal Bovine Serum” value (HIV-1 BH10 W.T.; Table 20) was 1 fold and the “Fold Change, 45% Human Serum” value (HIV-1 BH10 W.T.; Table 20, vs 10% FBS only) was 15.9 ± 11.1 fold. The “Fold Change, 45% Human Serum + AAG” value (HIV-1 BH10 W.T.; Table 20, vs 10% FBS only) was 24.8 fold and 19.5 fold, the “Fold Change, 10% Fetal Bovine Serum + AAG” value (HIV-1 BH10 W.T.; [12]) was 2.7 ± 0.7 fold and the “Fold Change, 45% Human Serum + AAG” value (HIV-1 BH10 W.T.; [12]) was 19.5 ± 7.6 fold. For the same molecule, the CC50 at 9 days [3] was 27900 ± 1140 nM, the EC50 (HIV-1 BH10 in U937 cells) was 0.6 ± 0.2 nM and the EC50 ([4]; Human immunodeficiency virus 1, read-out: EC50 range, 3 HIV-1 viral strains in 5 host human cell lines) was 0.5 to 2 nM. It also gave an EC50 ([4]; Human immunodeficiency virus 1, read-out: Mean Activity Range, Table 17, over all virus/host combinations) of 0.5 nM, a CC50 at 4 days [5] of 20000 ± 1600 nM and a CC50 [6] of 23500 to 31500 nM. The EC50 (HIV-1 W.T. (NL4-3) virus; read-out: Average EC50 Values ± Standard Deviation, W.T. (NL4-3)) was 1.5 ± 0.7 nM, the EC50 (HIV-1 W.T. (NL4-3) virus; read-out: mean EC50, NL4-3 strain in human PBMC) was 1.5 nM and the EC50 [7] was 0.25 to 3.2 nM. For the same molecule, the IC50 ([8]; Average IC50 Values ± Standard Deviation, Table 5) was no less than 422000 nM, the IC50 ([8]; Mean IC50 Values ± Standard Deviation, Table 6, N=4) was 422000 ± 150000 nM and the “Average IC50 Values ± Standard Deviation, DNA Pol Beta” value ([8]; Table 5) was “did not reach an IC50”. For the same molecule, the EC50 ([9]; Human immunodeficiency virus 1, MT4, read-out: Average EC50 Values ± Standard Deviation, K103N) was 0.3 ± 0.1 nM, the EC50 ([9]; Human immunodeficiency virus 1, MT4, read-out: EC50, K103N) was 0.26 ± 0.057 nM and the “Fold Change, K103N” value ([9]; Table 9, CPE) was 1.0 ± 0.3 fold. For the same molecule, the CC50 at 4 days [10] was 27000 nM and the CC50 at 4 days [11] was 23500 ± 1000 nM.
